The subject of one series is Jurkat T leukemia cells. Description: Propidium iodide uptake assay of apoptosis induced by chemotherapeutic agents or UV irradiation in Jurkat T cells. The class given is cell-based. As to conditions: 18 h. Here is the method: Jurkat T leukemia cells were grown in RPMI 1640 media (Life Technologies, Inc.)+10% FCS (Sigma Chemical Company) in a 5% CO2 -95% humidity incubator at 37° C., and maintained at a cell density between 4 and 8×10^5 cells/ml. 1×10^6 cells were treated with Doxorubicin (1 μM) or Paclitaxel (20 μM) or UV irradiation (40 J/m^2) with or without the caspase inhibitor Z-VD-fmk (10 μM) and incubated at 37° C. for 18 h. As a control, cells were also incubated with DMSO. At 18 h cells were observed under phase contrast microscopy to visualize any morphological changes induced by the apoptotic stimuli. Cells were assessed for viability by a propidium iodide uptake assay. Briefly, 20 μl of propidium solution containing 100 μg/ml of propidium iodide was added to 200 μl of cells and transferred to 12×75mm polystyrene tubes and analyzed on a flow cytometer. All flow cytometry analyses were performed on FACScalibur (Becton Dickinson) using CellQuest analysis software.
FIGS. 1A-C depict photographs of Jurkat cells: FIG. 1A, DMSO treated control cells; FIG. 1B, cells treated with doxorubicin (1 μM); FIG. 1C, cells treated with doxorubicin (1 μM) and Z-VD-fmk (10 μM). FIG. 1D depicts a bar graph showing percentage of cell apoptosis as measured by a propidium iodide uptake assay: a, DMSO treated control cells; b, cells treated with doxorubicin; c, cells treated with doxorubicin and Z-VD-fmk.
FIGS. 2A-C depict photographs of Jurkat cells: FIG. 2A, DMSO treated control cells; FIG. 2B, cells treated with paclitaxel (20 μM); FIG. 2C, cells treated with paclitaxel (20 μM) and Z-VD-fink (10 μM). FIG. 2D depicts a bar graph showing percentage of cell apoptosis as measured by a propidium iodide uptake assay: a, DMSO treated control cells; b, cells treated with paclitaxel; c, cells treated with paclitaxel and Z-VD-fink.
FIGS. 3A-C depict photographs of Jurkat cells: FIG. 3A, DMSO treated control cells; FIG. 3B, cells treated with UV irradiation (40 J/m^2); FIG. 3C, cells treated with UV irradiation (40 J/m2) and Z-VD-fmk (10 μM). […]

For series [1], the system named is oral mucositis induced by acute irradiation in hamsters. Description: Radiation-induced oral mucositis in hamsters (acute radiation model, mucositis scoring). The series is classed as in vivo, Golden Syrian hamsters. The following applies: for days with ulcerations (animal days with mucositis score of 3 or more) / daily mucositis scores, rank sum analysis vs vehicle control / reduction in ulceration vs vehicle control: day −2 to day 16; for days with ulcerations (animal days with mucositis score of 3 or more): vehicle control 56 days. From the text: A hamster model of chemotherapy-induced mucositis and, more recently, a model of radiation-induced mucositis has been developed (Sonis S. et al. Oral Surg. Oral. Med. Oral Pathol. 69:437-443 (1990) and Sonis S. et al. Cancer, 85:2103-13 (1999)). In the latter model, specific doses of acute radiation are targeted to the designated mucosa, with protection of other areas by a customized lead shield.
The objective of this study was to assess the effect of the topical and IP administration of (3R,S)-5-fluoro-3-[(2S)-3-methyl-1-oxo-2-(phenylcarbam-oyloxy)butyl]amino-4-oxo-pentanoic acid (a caspase inhibitor described in U.S. Application Ser. Nos. 60/151,077 and 60/158,373), in attenuating the development and progress of oral mucositis induced by acute irradiation in hamsters. Mucositis scores in hamsters receiving different doses of the compound were compared to those in hamsters receiving vehicle control, in order to detect statistically significant differences in the onset, duration or severity of the disorder.
Thirty-two (32) hamsters were randomly divided into four treatment groups with eight (8) animals per group. Each group was assigned a different treatment as follows:
Group 1: Vehicle control—topical vehicle control, tid (3 times daily), day −2 to day 16.
Group 2: Test compound at 20 mg/kg, IP once per day, day −2 to day 16.
Group 3: Test compound at 0.36 mg/ml (0.2 ml), topical, tid, day −2 to day 16.
Group 4: Test compound at 0.072 mg/ml (0.2 ml), topical, tid, day −2 to day 16.
viii) Starting on day 6 and continuing every second day thereafter (days 8, 10, 12, 14, 16, 18, 20, 22, 24, 26 & 28), each animal was photographed and evaluated for mucositis scoring.
dose of radiation (35 Gy/dose) was administered to all animals on Day 0. Radiation was generated with a 250 kilovolt potential (15-mA) source at a focal distance of 50 cm, hardened with a 0.35 mm Cu filtration system. Irradiation targeted the left buccal pouch mucosa at a rate of 121.5 cGy/minute. Prior to irradiation, animals were anesthetized with an intraperitoneal injection of sodium pentobarbital (80 mg/kg). The left buccal pouch was everted, fixed and isolated using a lead shield.
Topical dosing of animals was done three times per day. For topical treatments, a needleless tuberculin syringe, containing 0.2 ml of the test compound in 0.05M Tris (pH 8.0), was inserted into the left cheek pouch and the drug deposited into the pouch. Intraperitoneal injections of the compound were done once a day at a dose of 20 mg/kg and a drug concentration of 3-6 mg/ml in 0.05M Tris (pH 8.0). Dosing began on day −2 for all groups. In all groups treatment continued until day 16.
Mucositis Evaluation The mucositis score, weight change and survival were measured as outcomes in this study. For the evaluation of mucositis, the animals were anesthetized with inhalation anesthetics, and the left pouch everted. Mucositis was scored visually by comparison to a validated photographic scale, ranging from 0 for normal, to 5 for severe ulceration (clinical scoring). In descriptive terms, this scale is defined as follows: […]
A score of 1-2 is considered to represent a mild stage of the disease, whereas a score of 3-5 is considered to indicate moderate to severe mucositis. Following visual scoring, a photograph was taken of each animal's mucosa using a standardized technique. At the conclusion of the experiment, all films were developed and the photographs randomly numbered. At least two independent trained observers graded the photographs in blinded fashion using the above described scale (blinded scoring).

Series [2] can be described thus: Weight change and survival in the hamster mucositis study. The series is classed as in vivo, Golden Syrian hamsters. The following applies: at the doses used: 20 mg/kg IP; 0.36 and 0.072 mg/ml topical. From the text: i) Every day for the period of the study (day −2 to day 28), each animal was weighed and its survival recorded (to accommodate the schedules of the study site weights were taken every other day starting on day 17 and continuing to day 28).
Male Golden Syrian hamsters (Charles River Laboratories or Harlan Sprague Dawley), aged 5 to 6 weeks, with body weights of approximately 90 g at project commencement, were used. Animals were individually numbered using an ear punch and housed in small groups of 2 animals per cage. Animals were acclimatized for at least one week prior to project commencement. During this period, the animals were observed daily in order to reject animals that present poor condition.
Topical dosing of animals was done three times per day. For topical treatments, a needleless tuberculin syringe, containing 0.2 ml of the test compound in 0.05M Tris (pH 8.0), was inserted into the left cheek pouch and the drug deposited into the pouch. Intraperitoneal injections of the compound were done once a day at a dose of 20 mg/kg and a drug concentration of 3-6 mg/ml in 0.05M Tris (pH 8.0). […]
Mucositis Evaluation The mucositis score, weight change and survival were measured as outcomes in this study. […] Mucositis was scored visually by comparison to a validated photographic scale, ranging from 0 for normal, to 5 for severe ulceration (clinical scoring). […]

We go through two molecules from patent US6566338B1, “Caspase inhibitors for the treatment and prevention of chemotherapy and radiation therapy induced cell death” (Cytovia, Inc., priority 1999, dated 2003).

Regarding `CC(C)[C@H](NC(=O)OCc1ccccc1)C(=O)NC(CC(=O)O)C(=O)CF` (some centres unmarked) [Z-VD-fmk], the “doxorubicin induced cell death in Jurkat cells” value with Jurkat T leukemia cells (Doxorubicin 1 μM, Z-VD-fmk 10 μM, FIGS. 1A-D) is listed as “blocks doxorubicin induced cell death”. Moreover, the “paclitaxel induced cell death in Jurkat cells” value with Jurkat T leukemia cells (Paclitaxel 20 μM, Z-VD-fmk 10 μM, FIGS. 2A-D) is recorded as “blocks paclitaxel induced cell death”. Further, the “UV irradiation induced cell death in Jurkat cells” value in the series on Jurkat T leukemia cells (UV irradiation 40 J/m^2, Z-VD-fmk 10 μM, FIGS. 3A-D) is recorded as “blocks UV irradiation induced cell death”.
As for `CC(C)[C@H](OC(=O)Nc1ccccc1)C(=O)NC(CC(=O)O)C(=O)CF` (stereo partly drawn) [test compound, (3R,S)-5-Fluoro-3-[(2S)-3-methyl-1-oxo-2-(phenylcarbamoyloxy)butyl]amino-4-oxo-pentanoic Acid], the “days with ulcerations (animal days with mucositis score of 3 or more)” value in series [1] (0.072 mg/ml (0.2 ml) topical tid) worked out at 42 days; in series [1] (0.36 mg/ml (0.2 ml) topical tid), 27 days; in series [1] (20 mg/kg IP once per day), 39 days. The “daily mucositis scores, rank sum analysis vs vehicle control” value is “Significance was achieved only on day 18” in series [1] (0.072 mg/ml topical tid); “significant reduction of mucositis on days 18, 20, 22 & 26” in series [1] (0.36 mg/ml topical tid); “significant reduction in mucositis severity on days 20 and 22” in series [1] (20 mg/kg IP once per day). The “reduction in ulceration vs vehicle control” value in series [1] (0.072 mg/ml topical tid, p=0.061, not significant) came to 25%; in series [1] (0.36 mg/ml topical tid, p<0.001), 51.8%; in series [1] (20 mg/kg IP once per day, p=0.068, not significant), 24.8%. Also, the onset of ulceration result in series [1] (day 0 to day 16, all treatment groups) is “no apparent reduction in the onset of ulceration”. The “systemic toxicity (mortality due to the treatment)” value in series [2] is reported as “no systemic toxicity”.
